Legend:
human TLR7 = molecular target: T1, human TLR7 (Homo sapiens, UniProt Q9NYK1); test: HEK293-Blue-hTLR7 cells assay (NF-κB SEAP reporter); type: cell-based; details: 20 hrs incubation, agonism
T1 construct: host or cells: HEK293-Blue-hTLR7 (HEK293)
T1 sequence (Q9NYK1 27-1049): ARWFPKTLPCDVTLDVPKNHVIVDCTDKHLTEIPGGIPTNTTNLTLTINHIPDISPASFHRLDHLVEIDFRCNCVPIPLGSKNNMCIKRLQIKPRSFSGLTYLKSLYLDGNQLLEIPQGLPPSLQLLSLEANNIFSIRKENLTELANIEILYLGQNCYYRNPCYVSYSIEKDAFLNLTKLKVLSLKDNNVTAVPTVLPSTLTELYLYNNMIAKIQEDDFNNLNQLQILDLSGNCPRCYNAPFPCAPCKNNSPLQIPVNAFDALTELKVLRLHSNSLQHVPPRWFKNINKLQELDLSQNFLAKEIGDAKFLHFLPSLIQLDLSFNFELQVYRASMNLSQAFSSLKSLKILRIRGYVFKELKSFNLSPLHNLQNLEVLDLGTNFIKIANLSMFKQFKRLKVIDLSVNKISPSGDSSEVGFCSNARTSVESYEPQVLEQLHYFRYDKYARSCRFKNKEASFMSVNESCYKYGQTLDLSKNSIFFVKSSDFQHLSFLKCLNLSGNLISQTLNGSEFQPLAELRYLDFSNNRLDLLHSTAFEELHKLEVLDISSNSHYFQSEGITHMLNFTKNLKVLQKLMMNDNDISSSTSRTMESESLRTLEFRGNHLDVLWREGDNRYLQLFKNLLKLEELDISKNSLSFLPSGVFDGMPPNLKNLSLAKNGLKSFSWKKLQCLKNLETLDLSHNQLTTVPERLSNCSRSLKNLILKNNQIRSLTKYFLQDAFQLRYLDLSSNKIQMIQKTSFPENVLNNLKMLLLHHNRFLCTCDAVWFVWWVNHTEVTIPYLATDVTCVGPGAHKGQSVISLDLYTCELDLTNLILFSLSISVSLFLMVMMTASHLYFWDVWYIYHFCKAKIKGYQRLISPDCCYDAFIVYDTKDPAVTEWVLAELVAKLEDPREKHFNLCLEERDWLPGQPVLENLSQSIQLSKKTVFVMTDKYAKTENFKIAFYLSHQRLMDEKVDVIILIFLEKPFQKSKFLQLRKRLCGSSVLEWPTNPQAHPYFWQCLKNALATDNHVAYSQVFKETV
Text: A stable HEK293-Blue-hTLR7 cell line was purchased from InvivoGen (Cat. #: hkb-htlr7, San Diego, California, USA). These cells were designed for studying the stimulation of human TLR7 by monitoring the activation of NF-κB. A SEAP (secreted embryonic alkaline phosphatase) reporter gene was placed under the control of the IFN-β minimal promoter fused to five NF-κB and AP-1-binding sites. The SEAP was induced by activating NF-κB and AP-1 via stimulating HEK-Blue hTLR7 cells with TLR7 ligands. Therefore the reporter expression was regulated by the NF-κB promoter upon stimulation of human TLR7 for 20 hrs. The cell culture supernatant SEAP reporter activity was determined using QUANTI-Blue™ kit (Cat. #: rep-qbl, Invivogen, San Diego, Ca, USA) at a wavelength of 650 nm, a detection medium that turns purple or blue in the presence of alkaline phosphatase.
HEK293-Blue-hTLR7 cells were incubated at a density of 250,000˜450,000 cells/mL in a volume of 180 μL in a 96-well plate in Dulbecco's Modified Eagle's medium (DMEM) containing 4.5 g/L glucose, 100 U/mL penicillin, 100 μg/mL streptomycin, 100 μg/mL Normocin, 1% (V/V) GlutaMAX™, 10% (V/V) heat-inactivated fetal bovine serum for 24 hrs. Then the HEK293-Blue-hTLR-7 cells were incubated with addition of 20 μL test compound in a serial dilution in the presence of final DMSO at 1% and perform incubation under 37° C. in a CO2 incubator for 20 hrs. Then 20 μL of the supernatant from each well was incubated with 180 μL Quanti-blue substrate solution at 37° C. for 1 hours and the absorbance was read at 620-655 nm using a spectrophotometer. The signalling pathway that TLR7 activation leads to downstream NF-κB activation has been widely accepted, and therefore similar reporter assay was also widely used for evaluating TLR7 agonist (Tsuneyasu Kaisho and Takashi Tanaka, Trends in Immunology, Volume 29, Issue 7, July 2008, […]; Hiroaki Hemmi et al, Nature Immunology 3, 196-200 (2002)).

human TLR8 = molecular target: T2, human TLR8 (Homo sapiens, UniProt Q9NR97); test: HEK293-Blue-hTLR8 cells assay (NF-κB SEAP reporter); type: cell-based; details: 20 hours incubation, agonism
T2 construct: host or cells: HEK293-Blue-hTLR8 (HEK293)
T2 sequence (Q9NR97 27-1041): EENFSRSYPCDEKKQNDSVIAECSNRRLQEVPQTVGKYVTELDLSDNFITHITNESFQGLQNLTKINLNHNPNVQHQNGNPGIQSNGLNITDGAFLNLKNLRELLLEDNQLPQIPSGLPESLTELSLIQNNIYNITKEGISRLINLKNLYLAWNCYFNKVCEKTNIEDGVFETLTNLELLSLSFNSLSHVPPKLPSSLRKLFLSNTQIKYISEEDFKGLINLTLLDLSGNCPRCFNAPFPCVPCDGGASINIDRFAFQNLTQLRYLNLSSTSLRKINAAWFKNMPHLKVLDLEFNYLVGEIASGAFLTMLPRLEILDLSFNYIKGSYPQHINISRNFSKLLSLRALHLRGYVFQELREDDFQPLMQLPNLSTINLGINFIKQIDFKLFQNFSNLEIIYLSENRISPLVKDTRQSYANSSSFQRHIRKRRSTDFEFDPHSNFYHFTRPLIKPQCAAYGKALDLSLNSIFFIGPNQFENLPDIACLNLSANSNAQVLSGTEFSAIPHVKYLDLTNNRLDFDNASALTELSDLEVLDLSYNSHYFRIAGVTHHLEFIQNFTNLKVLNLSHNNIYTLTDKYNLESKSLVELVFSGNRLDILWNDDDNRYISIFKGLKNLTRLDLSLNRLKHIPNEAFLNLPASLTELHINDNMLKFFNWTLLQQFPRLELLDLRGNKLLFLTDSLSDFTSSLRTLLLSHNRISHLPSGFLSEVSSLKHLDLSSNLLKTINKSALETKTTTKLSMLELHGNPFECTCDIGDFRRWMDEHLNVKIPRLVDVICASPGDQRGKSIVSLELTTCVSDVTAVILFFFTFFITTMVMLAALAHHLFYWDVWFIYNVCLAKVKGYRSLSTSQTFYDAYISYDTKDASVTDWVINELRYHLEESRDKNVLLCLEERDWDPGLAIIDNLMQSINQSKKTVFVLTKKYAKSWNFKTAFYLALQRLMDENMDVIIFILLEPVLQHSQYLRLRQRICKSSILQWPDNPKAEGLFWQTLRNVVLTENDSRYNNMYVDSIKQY
Text: A stable HEK293-Blue-hTLR8 cell line was purchased from InvivoGen (Cat. #: hkb-htlr8, San Diego, California, USA). These cells were designed for studying the stimulation of human TLR8 by monitoring the activation of NF-κB. A SEAP (secreted embryonic alkaline phosphatase) reporter gene was placed under the control of the IFN-β minimal promoter fused to five NF-κB and AP-1-binding sites. The SEAP was induced by activating NF-κB and AP-1 via stimulating HEK-Blue hTLR8 cells with TLR8 ligands. Therefore the reporter expression was regulated by the NF-κB promoter upon stimulation of human TLR8. The cell culture supernatant SEAP reporter activity was determined using QUANTI-Blue™ kit (Cat. #: rep-qbl, Invivogen, San Diego, Ca, USA) at a wavelength of 650 nm, a detection medium that turns purple to blue in the presence of alkaline phosphatase.
HEK293-Blue-hTLR8 cells were incubated at a density of 250,000-450,000 cells/mL in a volume of 180 μL in a 96-well plate in Dulbecco's Modified Eagle's medium (DMEM) containing 4.5 g/L glucose, 100 U/mL penicillin, 100 μg/mL streptomycin, 100 μg/mL Normocin, 1% (V/V) GlutaMAX™, 10% (v/v) heat-inactivated fetal bovine serum for 24 hours. Then the HEK293-Blue-hTLR8 cells were incubated with addition of 20 μL test compound in a serial dilution in the presence of final DMSO at 1% and perform incubation under 37° C. in a CO2 incubator for 20 hours. Then 20 μL of the supernatant from each well was incubated with 180 μL Quanti-blue substrate solution at 37° C. for 1 hours and the absorbance was read at 620-655 nm using a spectrophotometer. The signalling pathway that TLR8 activation leads to downstream NF-κB activation has been widely accepted, and therefore similar reporter assay was also widely used for evaluating TLR8 agonist.

| Structure (SMILES) | EC50 (human TLR7) [nM] | EC50 (human TLR8) [nM] |
| --- | --- | --- |
| CCOCc1nc2c(N)nc(C)c(Sc3ccc(CN(C)C)cc3)c2[nH]1 [Example 1, 7-[4-[(dimethylamino)methyl]phenyl]sulfanyl-2-(ethoxymethyl)-6-methyl-1H-imidazo[4,5-c]pyridin-4-amine] | 27 | 14 |
| CCCCc1nc2c(N)nc(C)c(Sc3ccc(CN(C)C)cc3)c2n1CC(C)(C)O [Example 2, 1-[4-amino-2-butyl-7-[4-[(dimethylamino)methyl]phenyl]sulfanyl-6-methyl-imidazo[4,5-c]pyridin-1-yl]-2-methyl-propan-2-ol] | 35 | 28 |
| CCOCc1nc2c(N)nc(C)c([Se]c3ccc(CN(C)C)cc3)c2n1CC(C)(C)O [Example 3, 1-[4-amino-7-[4-[(dimethylamino)methyl]phenyl]selanyl-2-(ethoxymethyl)-6-methyl-imidazo[4,5-c]pyridin-1-yl]-2-methyl-propan-2-ol] | 28 | 24 |
| CCCN(CC)Cc1ccc(Sc2c(C)nc(N)c3nc(COCC)[nH]c23)cc1 [Example 5, 2-(ethoxymethyl)-7-[4-[[ethyl(propyl)amino]methyl]phenyl]sulfanyl-6-methyl-1H-imidazo[4,5-c]pyridin-4-amine] | 18 | 30 |
| CCOCc1nc2c(N)nc(C)c(Sc3ccc(CN(C)C)cc3)c2n1C [Example 7, 7-[4-[(dimethylamino)methyl]phenyl]sulfanyl-2-(ethoxymethyl)-1,6-dimethyl-imidazo[4,5-c]pyridin-4-amine] | 27 | 26 |
| CCOCc1nc2c(N)nc(C)c(Sc3ccc(CN(C)C)cc3O)c2[nH]1 [Example 8, 2-[[4-amino-2-(ethoxymethyl)-6-methyl-1H-imidazo[4,5-c]pyridin-7-yl]sulfanyl]-5-[(dimethylamino)methyl]phenol] | 27 | 26 |
| CCOCc1nc2c(N)nc(C)c(Sc3ccc(CN(C)C)c(OC)c3)c2[nH]1 [Example 9, 7-[4-[(dimethylamino)methyl]-3-methoxy-phenyl]sulfanyl-2-(ethoxymethyl)-6-methyl-1H-imidazo[4,5-c]pyridin-4-amine] | 30 | 3 |
| CCOCc1nc2c(N)nc(C)c(Sc3ccc(CN(C)C)c(O)c3)c2[nH]1 [Example 11, 5-[[4-amino-2-(ethoxymethyl)-6-methyl-1H-imidazo[4,5-c]pyridin-7-yl]sulfanyl]-2-[(dimethylamino)methyl]phenol] | 18 | 4 |

Compounds with a lower EC50 (human TLR7), results first:

| EC50 (human TLR7) [nM] | EC50 (human TLR8) [nM] | Structure (SMILES) |
| --- | --- | --- |
| 15 | 10 | CCOCc1nc2c(N)nc(C)c(Sc3ccc(CN(C)CC)cc3)c2[nH]1 [Example 6, 2-(ethoxymethyl)-7-[4-[[ethyl(methyl)amino]methyl]phenyl]sulfanyl-6-methyl-1H-imidazo[4,5-c]pyridin-4-amine] |
| 12 | 19 | CCOCc1nc2c(N)nc(C)c(SCCc3ccc(CN(C)C)c(O)c3)c2[nH]1 [Example 13, 5-[2-[[4-amino-2-(ethoxymethyl)-6-methyl-LH-imidazo[4,5-c]pyridin-7-yl]sulfanyl]ethyl]-2-[(dimethylamino)methyl]phenol] |
| 10 | 3 | CCOCc1nc2c(N)nc(C)c(Sc3ccc(CN(C)C)c(O)c3)c2n1C [Example 12, 5-[4-amino-2-(ethoxymethyl)-1,6-dimethyl-imidazo[4,5-c]pyridin-7-yl]sulfanyl-2-[(dimethylamino)methyl]phenol] |
| 8 | 10 | CCOCc1nc2c(N)nc(C)c(SCCc3ccc(CN(C)C)cc3)c2[nH]1 [Example 10, 7-[2-[4-[(dimethylamino)methyl]phenyl]ethylsulfanyl]-2-(ethoxymethyl)-6-methyl-1H-imidazo[4,5-c]pyridin-4-amine] |
| 1 | 20 | CCOCc1nc2c(N)nc(C)c(Sc3c(OC)cc(CN(C)C)cc3OC)c2[nH]1 [Example 4, 7-[4-[(dimethylamino)methyl]-2,6-dimethoxy-phenyl]sulfanyl-2-(ethoxymethyl)-6-methyl-1H-imidazo[4,5-c]pyridin-4-amine] |

— patent publication US20260070906A1, “IMIDAZO[4,5-C]PYRIDINE COMPOUNDS FOR THE TREATMENT OF CANCER” (Hoffmann-La Roche Inc., priority 2023, published 2026)
